Data on 30 compounds can be found in patent US9139529B2, “Substituted quinoxalines as sodium channel modulators” (VERTEX PHARMACEUTICALS INCORPORATED, priority 2013, dated 2015).

The target in this experiment is human Nav1.8 (Homo sapiens (Human), UniProt Q9Y5Y9). Put plainly: E-VIPR optical membrane potential assay with electrical stimulation. The format is cell-based. Conditions: HEK cells expressing human Nav1.8. From the text: Assays for Detecting and Measuring NaV Inhibition Properties of Compounds E-VIPR Optical Membrane Potential Assay Method with Electrical Stimulation
Sequence of human Nav1.8 (Q9Y5Y9 whole entry): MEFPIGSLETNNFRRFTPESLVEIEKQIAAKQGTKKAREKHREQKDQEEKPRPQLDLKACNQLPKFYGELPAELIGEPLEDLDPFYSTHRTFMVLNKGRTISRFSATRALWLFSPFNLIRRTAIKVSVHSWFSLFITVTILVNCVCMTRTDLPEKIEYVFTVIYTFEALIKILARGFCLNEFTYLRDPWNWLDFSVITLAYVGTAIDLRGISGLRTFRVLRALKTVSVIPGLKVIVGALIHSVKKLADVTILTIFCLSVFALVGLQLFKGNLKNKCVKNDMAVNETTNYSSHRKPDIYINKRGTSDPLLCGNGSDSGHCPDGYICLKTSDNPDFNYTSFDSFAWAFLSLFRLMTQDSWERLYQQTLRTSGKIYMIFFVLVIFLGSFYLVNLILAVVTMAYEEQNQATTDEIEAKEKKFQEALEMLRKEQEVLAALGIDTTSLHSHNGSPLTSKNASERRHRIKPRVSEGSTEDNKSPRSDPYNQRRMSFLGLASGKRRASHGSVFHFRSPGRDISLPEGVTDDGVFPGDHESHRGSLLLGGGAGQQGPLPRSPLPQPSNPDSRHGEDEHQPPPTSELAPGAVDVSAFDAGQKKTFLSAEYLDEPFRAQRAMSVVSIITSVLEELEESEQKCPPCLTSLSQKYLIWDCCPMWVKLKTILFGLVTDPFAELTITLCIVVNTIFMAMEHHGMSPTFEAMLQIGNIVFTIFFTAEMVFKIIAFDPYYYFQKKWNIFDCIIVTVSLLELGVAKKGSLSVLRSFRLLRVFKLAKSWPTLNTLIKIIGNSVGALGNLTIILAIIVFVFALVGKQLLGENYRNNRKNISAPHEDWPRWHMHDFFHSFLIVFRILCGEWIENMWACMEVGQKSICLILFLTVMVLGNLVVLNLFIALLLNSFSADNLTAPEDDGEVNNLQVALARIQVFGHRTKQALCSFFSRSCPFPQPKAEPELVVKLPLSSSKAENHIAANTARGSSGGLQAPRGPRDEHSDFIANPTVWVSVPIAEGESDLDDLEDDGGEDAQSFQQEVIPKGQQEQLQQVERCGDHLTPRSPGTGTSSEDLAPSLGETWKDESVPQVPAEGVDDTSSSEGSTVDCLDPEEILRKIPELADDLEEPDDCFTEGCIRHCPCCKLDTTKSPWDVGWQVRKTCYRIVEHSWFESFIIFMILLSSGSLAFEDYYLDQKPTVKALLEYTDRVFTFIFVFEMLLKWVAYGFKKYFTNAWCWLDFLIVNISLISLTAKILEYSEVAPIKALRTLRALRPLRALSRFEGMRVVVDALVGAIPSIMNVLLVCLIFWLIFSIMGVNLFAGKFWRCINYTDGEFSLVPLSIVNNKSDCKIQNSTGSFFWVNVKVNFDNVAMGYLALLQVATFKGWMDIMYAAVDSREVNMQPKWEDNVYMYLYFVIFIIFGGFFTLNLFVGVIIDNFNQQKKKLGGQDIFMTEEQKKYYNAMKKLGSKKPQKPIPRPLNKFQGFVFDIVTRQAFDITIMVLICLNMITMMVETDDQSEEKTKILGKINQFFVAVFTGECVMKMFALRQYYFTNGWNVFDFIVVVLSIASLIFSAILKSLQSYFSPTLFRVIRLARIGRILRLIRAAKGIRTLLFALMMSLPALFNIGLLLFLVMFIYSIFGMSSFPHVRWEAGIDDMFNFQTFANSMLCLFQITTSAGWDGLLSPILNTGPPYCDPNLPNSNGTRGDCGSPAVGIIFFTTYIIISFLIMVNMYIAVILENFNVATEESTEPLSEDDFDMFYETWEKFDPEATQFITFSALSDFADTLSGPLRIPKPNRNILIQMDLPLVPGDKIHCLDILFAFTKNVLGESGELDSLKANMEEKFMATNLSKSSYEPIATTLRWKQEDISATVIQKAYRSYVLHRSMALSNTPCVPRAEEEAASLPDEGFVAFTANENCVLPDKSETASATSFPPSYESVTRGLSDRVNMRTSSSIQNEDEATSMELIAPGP
Sodium channels are voltage-dependent proteins that can be activated by inducing membrane voltage changes by applying electric fields. The electrical stimulation instrument and methods of use are described in Ion Channel Assay Methods PCT/US01/21652, herein incorporated by reference and are referred to as E-VIPR. The instrument comprises a microtiter plate handler, an optical system for exciting the coumarin dye while simultaneously recording the coumarin and oxonol emissions, a waveform generator, a current- or voltage-controlled amplifier, and a device for inserting electrodes in well. Under integrated computer control, this instrument passes user-programmed electrical stimulus protocols to cells within the wells of the microtiter plate.
24 hours before the assay on E-VIPR, HEK cells expressing human Nav1.8 were seeded in 384-well poly-lysine coated plates at 15,000-20,000 cells per well. HEK cells were grown in media (exact composition is specific to each cell type and NaV subtype) supplemented with 10% FBS (Fetal Bovine Serum, qualified; GibcoBRL #16140-071) and 1% Pen-Strep (Penicillin-Streptomycin; GibcoBRL #15140-122). Cells were grown in vented cap flasks, in 90% humidity and 5% CO2.
1) Pre-spotted compounds (in neat DMSO) into compound plates. Vehicle control (neat DMSO), the positive control (20 mM DMSO stock tetracaine, 125 μM final in assay) and test compounds were added to each well at 160× desired final concentration in neat DMSO. Final compound plate volume was 80 μL (80-fold intermediate dilution from 1 μL DMSO spot; 160-fold final dilution after transfer to cell plate). Final DMSO concentration for all wells in assay was 0.625%.
2) Prepared Hexyl Dye Solution.
3) Prepared cell plates. On the day of the assay, medium was aspirated and cells were washed three times with 100 μL of Bath1 Solution, maintaining 25 μL residual volume in each well.
4) Dispensed 25 μL per well of Hexyl Dye Solution into cell plates. Incubated for 20-35 minutes at room temp or ambient conditions.
5) Dispensed 80 μL per well of Bath1 into compound plates. Acid Yellow-17 (1 mM) was added and Potassium Chloride was altered from 4.5 to 20 mM depending on the NaV subtype and assay sensitivity.
6) Washed cell plates three times with 100 μL per well of Bath1, leaving 25 μL of residual volume. Then transferred 25 uL per well from Compound Plates to Cell Plates. Incubated for 20-35 minutes at room temp/ambient condition.
7) Read Plate on E-VIPR. Used the current-controlled amplifier to deliver stimulation wave pulses for 10 seconds and a scan rate of 200 Hz. A pre-stimulus recording was performed for 0.5 seconds to obtain the un-stimulated intensities baseline. The stimulatory waveform was followed by 0.5 seconds of post-stimulation recording to examine the relaxation to the resting state.
Data was analyzed and reported as normalized ratios of emission intensities measured in the 460 nm and 580 nm channels. The response as a function of time was reported as the ratios obtained using the following formula: […]
The data was further reduced by calculating the initial (Ri) and final (Rf) ratios. These were the average ratio values during part or all of the pre-stimulation period, and during sample points during the stimulation period. The response to the stimulus R=Rf/Ri was then calculated and reported as a function of time.
Control responses were obtained by performing assays in the presence of a compound with the desired properties (positive control), such as tetracaine, and in the absence of pharmacological agents (negative control). Responses to the negative (N) and positive (P) controls were calculated as above. The compound antagonist activity A is defined as:
[formula] where R is the ratio response of the test compound
The compound `COc1cc(F)ccc1Oc1nc2ccccc2nc1C(=O)Nc1ccc2[nH]nnc2c1` [Compound 42, N-(1H-benzo[d][1,2,3]triazol-5-yl)-3-(4-fluoro-2-methoxyphenoxy)quinoxaline-2-carboxamide] registered an IC50 of 96 nM.
`Cc1cc(F)ccc1Oc1nc2ccccc2cc1C(=O)Nc1cccc(S(N)(=O)=O)c1` [Compound 63, 2-(4-fluoro-2-methylphenoxy)-N-(3-sulfamoylphenyl)quinoline-3-carboxamide] yielded a half-inhibitory concentration (IC50) of 8 nM.
The same measure for `COc1ccc(Oc2nc3ccccc3cc2C(=O)Nc2cccc(S(N)(=O)=O)c2)c(Cl)c1` [Compound 69, 2-(2-chloro-4-methoxyphenoxy)-N-(3-sulfamoylphenyl)quinoline-3-carboxamide]: 15 nM; for `COc1cc(F)ccc1Oc1nc2ccccc2nc1C(=O)Nc1cc(C#N)ccn1` [Compound 50, N-(4-cyanopyridin-2-yl)-3-(4-fluoro-2-methoxyphenoxy)quinoxaline-2-carboxamide]: 1250 nM; for `COc1cc(F)ccc1Oc1nc2ccccc2nc1C(=O)Nc1ccncc1` [Compound 53, 3-(4-fluoro-2-methoxyphenoxy)-N-(pyridin-4-yl)quinoxaline-2-carboxamide]: 22 nM.
In turn, `O=C(O)c1ccc(NC(=O)c2nc3ccccc3nc2Oc2ccc(OC(F)(F)F)cc2)cc1` [Compound 17, 4-(3-(4-(trifluoromethoxy)phenoxy)quinoxaline-2-carboxamido)benzoic acid] gave an IC50 of 44 nM.
The same measure for `NS(=O)(=O)c1cccc(NC(=O)c2nc3ccccc3nc2Oc2ccc(F)cc2Cl)c1` [Compound 6, 3-(2-chloro-4-fluorophenoxy)-N-(3-sulfamoylphenyl)quinoxaline-2-carboxamide]: 3 nM; for `COc1ccc(Oc2nc3ccccc3nc2C(=O)Nc2ccc(C(=O)O)nc2)c(OC)c1` [Compound 26, 5-(3-(2,4-dimethoxyphenoxy)quinoxaline-2-carboxamido)picolinic acid]: 46 nM; for `COc1cc(Cl)ccc1Oc1nc2ccccc2nc1C(=O)Nc1ccc(C(=O)O)nc1` [Compound 23, 5-(3-(4-chloro-2-methoxyphenoxy)quinoxaline-2-carboxamido)picolinic acid]: 19 nM.
The figure for `Cc1cc(Cl)ccc1Oc1nc2ccccc2nc1C(=O)Nc1cccc(S(N)(=O)=O)c1` [Compound 9, 3-(4-chloro-2-methylphenoxy)-N-(3-sulfamoylphenyl)quinoxaline-2-carboxamide] is 14 nM; for `COc1ccc(Oc2nc3ccccc3nc2C(=O)Nc2cccc(S(N)(=O)=O)c2)c(Cl)c1` [Compound 4, 3-(2-chloro-4-methoxyphenoxy)-N-(3-sulfamoylphenyl)quinoxaline-2-carboxamide] it is 4 nM; for `NS(=O)(=O)c1cccc(NC(=O)c2cc3ccccc3nc2Oc2ccc(F)cc2F)c1` [Compound 65, 2-(2,4-difluorophenoxy)-N-(3-sulfamoylphenyl)quinoline-3-carboxamide] it is 11 nM.
The same measure for `COc1cc(F)ccc1Oc1nc2ccccc2nc1C(=O)Nc1cccc(S(C)(=O)=O)c1` [Compound 46, 3-(4-fluoro-2-methoxyphenoxy)-N-(3-(methylsulfonyl)phenyl)quinoxaline-2-carboxamide]: 1 nM; for `NS(=O)(=O)c1cccc(NC(=O)c2cc3ccccc3nc2Oc2ccc(F)cc2)c1` [Compound 60, 2-(4-fluorophenoxy)-N-(3-sulfamoylphenyl)quinoline-3-carboxamide]: 17 nM; for `COc1ccc(Oc2nc3ccccc3nc2C(=O)Nc2cccc(S(N)(=O)=O)c2)c(F)c1` [Compound 12, 3-(2-fluoro-4-methoxyphenoxy)-N-(3-sulfamoylphenyl)quinoxaline-2-carboxamide]: 22 nM.
Take `O=C(O)c1ccc(NC(=O)c2nc3ccccc3nc2Oc2ccccc2OC(F)F)cn1` [Compound 24, 5-(3-(2-(difluoromethoxy)phenoxy)quinoxaline-2-carboxamido)picolinic acid]: the IC50 came to 340 nM.
The figure for `NS(=O)(=O)c1cccc(NC(=O)c2cc3ccccc3nc2Oc2ccc(OC(F)(F)F)cc2)c1` [Compound 68, N-(3-sulfamoylphenyl)-2-(4-(trifluoromethoxy)phenoxy)quinoline-3-carboxamide] is 13 nM; for `COc1cc(F)ccc1Oc1nc2ccccc2cc1C(=O)Nc1cccc(S(N)(=O)=O)c1` [Compound 61, 2-(4-fluoro-2-methoxyphenoxy)-N-(3-sulfamoylphenyl)quinoline-3-carboxamide] it is 11 nM; for `COc1cc(F)ccc1Oc1nc2ccccc2nc1C(=O)Nc1ccc(C(N)=O)cc1` [Compound 58, N-(4-carbamoylphenyl)-3-(4-fluoro-2-methoxyphenoxy)quinoxaline-2-carboxamide] it is 31 nM.
The compound `NS(=O)(=O)c1cccc(NC(=O)c2nc3ccccc3nc2Oc2ccc(OCC(F)(F)F)cc2)c1` [Compound 15, N-(3-sulfamoylphenyl)-3-(4-(2,2,2-trifluoroethoxy)phenoxy)quinoxaline-2-carboxamide] had an IC50 of 66 nM.
`COc1cc(F)ccc1Oc1nc2ccccc2nc1C(=O)Nc1nc(C(=O)O)co1` [Compound 39, 2-(3-(4-fluoro-2-methoxyphenoxy)quinoxaline-2-carboxamido)oxazole-4-carboxylic acid] returned an IC50 of 2600 nM.
Turning to `COc1cc(F)ccc1Oc1nc2ccccc2nc1C(=O)Nc1ccc2[nH]c(CO)nc2c1` [Compound 44, 3-(4-fluoro-2-methoxyphenoxy)-N-(2-(hydroxymethyl)-1H-benzo[d]imidazol-5-yl)quinoxaline-2-carboxamide], 425 nM corresponded to half-maximal inhibition (IC50).
Turning to `COc1cc(F)ccc1Oc1nc2ccccc2nc1C(=O)Nc1ccc(C#N)nc1` [Compound 51, N-(6-cyanopyridin-3-yl)-3-(4-fluoro-2-methoxyphenoxy)quinoxaline-2-carboxamide], half-maximal inhibition (IC50) required 37 nM.
In turn, `COc1cc(Cl)ccc1Oc1nc2ccccc2cc1C(=O)Nc1cccc(S(N)(=O)=O)c1` [Compound 73, 2-(4-chloro-2-methoxyphenoxy)-N-(3-sulfamoylphenyl)quinoline-3-carboxamide] yielded an IC50 of 31 nM.
Regarding `NS(=O)(=O)c1cccc(NC(=O)c2nc3ccccc3nc2Oc2ccc(F)cc2)c1` [Compound 1, 3-(4-fluorophenoxy)-N-(3-sulfamoylphenyl)quinoxaline-2-carboxamide], the IC50 turned out to be 27 nM.
The same measure for `COc1cc(F)ccc1Oc1nc2ccccc2nc1C(=O)Nc1ccnc(C(=O)O)c1` [Compound 34, 4-(3-(4-fluoro-2-methoxyphenoxy)quinoxaline-2-carboxamido)picolinic acid]: 16 nM; for `COc1cc(F)ccc1Oc1nc2ccccc2nc1C(=O)Nc1nc[nH]n1` [Compound 38, 3-(4-fluoro-2-methoxyphenoxy)-N-(1H-1,2,4-triazol-3-yl)quinoxaline-2-carboxamide]: 1220 nM.
The same measure for `COc1cc(F)ccc1Oc1nc2ccccc2nc1C(=O)Nc1ccc2[nH]c(=O)[nH]c2c1` [Compound 57, 3-(4-fluoro-2-methoxyphenoxy)-N-(2-oxo-2,3-dihydro-1H-benzo[d]imidazol-5-yl)quinoxaline-2-carboxamide]: 19 nM; for `NS(=O)(=O)c1cccc(NC(=O)c2nc3ccccc3nc2Oc2ccc(OC(F)(F)F)cc2)c1` [Compound 3, N-(3-sulfamoylphenyl)-3-(4-(trifluoromethoxy)phenoxy)quinoxaline-2-carboxamide]: 14 nM.
On to `Cc1cc(Cl)ccc1Oc1nc2ccccc2cc1C(=O)Nc1cccc(S(N)(=O)=O)c1` [Compound 71, 2-(4-chloro-2-methylphenoxy)-N-(3-sulfamoylphenyl)quinoline-3-carboxamide], for which it took 14 nM to reach half-maximal inhibition (IC50).
